# Measurements as given in ChEMBL document CHEMBL1134122, “Substituted indole-5-carboxamides and -acetamides as potent nonpeptide GnRH receptor antagonists” (Bioorg Med Chem Lett, 2001).
# Legend:
# [1] = target: T1, Gonadotropin-releasing hormone receptor (Rattus norvegicus, UniProt P30969); assay: Inhibition GnRH-stimulated luteinizing hormone (LH) release from rat pituitary cells; format: functional, cell-based, Pituitary gland cell
# T1 sequence (P30969 whole entry): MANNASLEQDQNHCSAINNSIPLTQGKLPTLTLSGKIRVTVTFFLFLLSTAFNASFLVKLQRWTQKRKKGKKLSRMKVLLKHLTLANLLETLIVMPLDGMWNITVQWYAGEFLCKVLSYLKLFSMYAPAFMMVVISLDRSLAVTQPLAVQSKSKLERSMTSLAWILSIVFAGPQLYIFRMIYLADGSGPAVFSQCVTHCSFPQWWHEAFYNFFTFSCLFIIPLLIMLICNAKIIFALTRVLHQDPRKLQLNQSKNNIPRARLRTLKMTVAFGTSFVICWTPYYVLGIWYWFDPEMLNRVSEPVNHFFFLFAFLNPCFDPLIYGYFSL
# [2] = target: T1, Gonadotropin-releasing hormone receptor; assay: Inhibition of [125I]buserelin binding to rat pituitary Gonadotropin-releasing hormone receptor, in the absence of bovine serum albumin (BSA)
# [3] = target: T1, Gonadotropin-releasing hormone receptor; assay: Inhibition of [125I]buserelin binding to rat pituitary Gonadotropin-releasing hormone receptor, in the presence of 0.1% bovine serum albumin.
SMILES,IC50 [1] [nM],IC50 [2] [nM],IC50 [3] [nM]
Cc1cc(C)cc(-c2[nH]c3ccccc3c2CCNCCCCc2ccc(O)cc2)c1,> 6200,–,–
Cc1cc(C)cc(-c2[nH]c3ccc(C(=O)N4C(C)CCC4C)cc3c2CCNCCCCc2ccc(NS(C)(=O)=O)cc2)c1 (stereo not given),95,3,0.2
CCN(CC)C(=O)C(C)(C)c1ccc2[nH]c(-c3cc(C)cc(C)c3)c(CCNCCCCc3ccc(NS(C)(=O)=O)cc3)c2c1,42,2,0.2
Cc1cc(C)cc(-c2[nH]c3ccc(C(=O)N4CCOCC4)cc3c2CCNCCCCc2ccc(O)cc2)c1,800,4,–
Cc1cc(C)cc(-c2[nH]c3ccc(C(C)(C)C(=O)N4C(C)CCC4C)cc3c2CCNCCCCc2ccc(NS(C)(=O)=O)cc2)c1 (stereo not given),65,3,0.2
CCCN(CCC)C(=O)c1ccc2[nH]c(-c3cc(C)cc(C)c3)c(CCNCCCCc3ccc(NS(C)(=O)=O)cc3)c2c1,140,5,–
Cc1cc(C)cc(-c2[nH]c3ccc(C(=O)N(C)C)cc3c2CCNCCCCc2ccc(NS(C)(=O)=O)cc2)c1,690,2,–
CCOC(=O)Cc1ccc2[nH]c(-c3cc(C)cc(C)c3)c(CCNCCCCc3ccc(NS(C)(=O)=O)cc3)c2c1,2000,2,–
Cc1cc(C)cc(-c2[nH]c3ccc(C(=O)N(CC(C)C)CC(C)C)cc3c2CCNCCCCc2ccc(NS(C)(=O)=O)cc2)c1,32,–,0.4
CCCN(CCC)C(=O)C(C)(C)c1ccc2[nH]c(-c3cc(C)cc(C)c3)c(CCNCCCCc3ccc(NS(C)(=O)=O)cc3)c2c1,70,5,0.4
Cc1cc(C)cc(-c2[nH]c3ccc(C(C)(C)C(=O)N(C)C)cc3c2CCNCCCCc2ccc(NS(C)(=O)=O)cc2)c1,160,3,0.1
CCOC(=O)C(C)(C)c1ccc2[nH]c(-c3cc(C)cc(C)c3)c(CCNCCCCc3ccc(NS(C)(=O)=O)cc3)c2c1,150,3,0.3
Cc1cc(C)cc(-c2[nH]c3ccc(CC(=O)N(C)C)cc3c2CCNCCCCc2ccc(NS(C)(=O)=O)cc2)c1,320,2,0.1
CCOC(=O)C(C)c1ccc2[nH]c(-c3cc(C)cc(C)c3)c(CCNCCCCc3ccc(NS(C)(=O)=O)cc3)c2c1 (stereo not given),610,4,0.5
Cc1cc(C)cc(-c2[nH]c3ccc(C(=O)N4CCOCC4)cc3c2CCNCCCCc2ccc(NS(C)(=O)=O)cc2)c1,400,2,0.2
Cc1cc(C)cc(-c2[nH]c3ccc(C(=O)N4CCCCC4)cc3c2CCNCCCCc2ccc(NS(C)(=O)=O)cc2)c1,220,2,–
CCN(CC)C(=O)c1ccc2[nH]c(-c3cc(C)cc(C)c3)c(CCNCCCCc3ccc(O)cc3)c2c1,540,6,0.5
Cc1cc(C)cc(-c2[nH]c3ccc(C(=O)NCc4ccccc4)cc3c2CCNCCCCc2ccc(O)cc2)c1,–,24,–

SMILES,IC50 [1] [nM],IC50 [2] [nM],IC50 [3] [nM]
CCN(CC)C(=O)C(C)c1ccc2[nH]c(-c3cc(C)cc(C)c3)c(CCNCCCCc3ccc(NS(C)(=O)=O)cc3)c2c1 (stereo not given),130,2,0.2
CCN(CC)C(=O)c1ccc2[nH]c(-c3cc(C)cc(C)c3)c(CCNCCCCc3ccc(NS(C)(=O)=O)cc3)c2c1,270,2,0.2
CCCCN(CC)C(=O)c1ccc2[nH]c(-c3cc(C)cc(C)c3)c(CCNCCCCc3ccc(NS(C)(=O)=O)cc3)c2c1,240,4,–
Cc1cc(C)cc(-c2[nH]c3ccc(C(=O)N(C(C)C)C(C)C)cc3c2CCNCCCCc2ccc(NS(C)(=O)=O)cc2)c1,72,3,0.3
Cc1cc(C)cc(-c2[nH]c3ccc(C(C)(C)C(=O)N4CCOCC4)cc3c2CCNCCCCc2ccc(NS(C)(=O)=O)cc2)c1,81,–,0.12
Cc1cc(C)cc(-c2[nH]c3ccc(C(=O)N(CC(C)C)CC(C)C)cc3c2CCNCCCCc2ccc(O)cc2)c1,380,–,–
CCNC(=O)c1ccc2[nH]c(-c3cc(C)cc(C)c3)c(CCNCCCCc3ccc(NS(C)(=O)=O)cc3)c2c1,2400,6,–
Cc1cc(C)cc(-c2[nH]c3ccc(OC(=O)N(C)C)cc3c2CCNCCCCc2ccc(O)cc2)c1,–,3,–
CCOC(=O)c1ccc2[nH]c(-c3cc(C)cc(C)c3)c(CCNCCCCc3ccc(O)cc3)c2c1,–,32,–
CCOC(=O)c1ccc2[nH]c(-c3cc(C)cc(C)c3)c(CCNCCCCc3ccc(NS(C)(=O)=O)cc3)c2c1,> 6200,14,–
Cc1cc(C)cc(-c2[nH]c3ccc(C(C)(C)C(=O)N4CCCC4)cc3c2CCNCCCCc2ccc(NS(C)(=O)=O)cc2)c1,40,2,0.2
Cc1cc(C)cc(-c2[nH]c3ccc(C(=O)N4CCCC4)cc3c2CCNCCCCc2ccc(NS(C)(=O)=O)cc2)c1,510,4,0.2
CCN(C(=O)c1ccc2[nH]c(-c3cc(C)cc(C)c3)c(CCNCCCCc3ccc(NS(C)(=O)=O)cc3)c2c1)C(C)(C)C,660,–,0.8
CCN(C(=O)c1ccc2[nH]c(-c3cc(C)cc(C)c3)c(CCNCCCCc3ccc(NS(C)(=O)=O)cc3)c2c1)C(C)C,120,3,–
CCN(CC)C(=O)Cc1ccc2[nH]c(-c3cc(C)cc(C)c3)c(CCNCCCCc3ccc(NS(C)(=O)=O)cc3)c2c1,130,3,0.2
Cc1cc(C)cc(-c2[nH]c3ccc(C(=O)N4C5CCC4CC5)cc3c2CCNCCCCc2ccc(NS(C)(=O)=O)cc2)c1,210,3,0.4
Cc1cc(C)cc(-c2[nH]c3ccc(CC(=O)N4C(C)CCC4C)cc3c2CCNCCCCc2ccc(NS(C)(=O)=O)cc2)c1 (stereo not given),95,3,0.1
Cc1cc(C)cc(-c2[nH]c3ccc(C(=O)N(C)C)cc3c2CCNCCCCc2ccc(O)cc2)c1,820,5,–
